From patent US12145929B2, “Piperidine derivative and pharmaceutical composition for inhibiting autotaxin comprising same” (NEXTGEN BIOSCIENCE CO., LTD., priority 2021, dated 2024) come the findings set out here.

This experiment has as its target human Autotaxin protein (Homo sapiens, UniProt Q13822). Kind of experiment: Evaluation of inhibitory activity against human Autotaxin protein (18:1 LysoPC substrate, choline assay kit, absorbance 570 nm). Particulars: compound at 500 nM, 2 hours at 37° C. The class given is biochemical. The method, boiled down: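 Human Autotaxin incubated with compound (6 concentrations, 5-fold dilutions) and sonicated 18:1 LysoPC in Tris-Cl pH 8.0 buffer with KCl, CaCl2, MgCl2, NaCl and 1 mg/mL BSA, 2 h at 37° C. Released choline detected via choline oxidase/dye probe, 30 min, absorbance 570 nm. % inhibition relative to control absorbance.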
With `O=C(O)C1CCN(c2nnc(-c3cnc(NC4Cc5cc(F)c(F)cc5C4)nc3)o2)CC1` [Example 67, 1-(5-(2-((5,6-Difluoro-2,3-dihydro-1H-inden-2-yl)amino)pyrimidin-5-yl)-1,3,4-oxadiazol-2-yl)piperidine-4-carboxylic acid], 0.5 µM produced 30.9% inhibition.

The compound `O=C(O)CC1CCN(c2nnc(-c3cnc(NC4Cc5cc(F)c(F)cc5C4)nc3)o2)CC1` [Example 68, 2-(1-(5-(2-((5,6-Difluoro-2,3-dihydro-1H-inden-2-yl)amino)pyrimidin-5-yl)-1,3,4-oxadiazol-2-yl)piperidin-4-yl)acetic acid] showed an inhibition at 0.5 µM of 87.1%.

In turn, `O=C(NO)C1CCN(c2nnc(-c3cnc(NC4Cc5cc(F)c(F)cc5C4)nc3)o2)CC1` [Example 69, 1-(5-(2-((5,6-Difluoro-2,3-dihydro-1H-inden-2-yl)amino)pyrimidin-5-yl)-1,3,4-oxadiazol-2-yl)-N-hydroxypiperidine-4-carboxamide] came in with an inhibition at 0.5 µM of 66.8%.

On to `COC1(c2c[nH]nn2)CCN(c2nnc(-c3cnc(NC4Cc5cc(F)c(F)cc5C4)nc3)o2)CC1` [Example 70, N-(5,6-difluoro-2,3-dihydro-1H-inden-2-yl)-5-(5-(4-methoxy-4-(1H-1,2,3-triazol-4-yl)piperidin-1-yl)-1,3,4-oxadiazol-2-yl)pyrimidin-2-amine], for which the inhibition at 0.5 µM worked out at 97.9%.

In the case of `Fc1cc2c(cc1F)CC(Nc1ncc(-c3nnc(N4CCC(F)(c5cnn[nH]5)CC4)o3)cn1)C2` [Example 71, N-(5,6-difluoro-2,3-dihydro-1H-inden-2-yl)-5-(5-(4-fluoro-4-(1H-1,2,3-triazol-5-yl)piperidin-1-yl)-1,3,4-oxadiazol-2-yl)pyrimidin-2-amine], the inhibition at 0.5 µM worked out at 98.6%.

The inhibition is the change of the read-out against control, counted positive when it falls. Higher therefore signals a response far below the control.
